Assay results: ChEMBL document CHEMBL3400061, “Structure-activity relationships of IKM-159: Diverted synthesis and biological evaluation of a series of C5-oxy analogs” (Bioorg Med Chem Lett, 2015)
Calls of active or inactive are those of the source. No cut-off for these calls is given here.

Key:
Assay type in all cases: functional, organism-based
[1] = system: Mus musculus; experiment: Effect on behavior in ddY mouse at 100 ug, icv
[2] = system: Mus musculus; experiment: Induction of loss of body flaccidness in ddY mouse at 100 ug, icv
[3] = system: Mus musculus; experiment: Induction of loss of body motion in ddY mouse at 100 ug, icv
[4] = system: Mus musculus; experiment: Suppression of voluntary movements in ddY mouse at 100 ug, icv

Row | Structure (SMILES) | Activity [1] | further results
1 | O=C(O)C[C@@]12O[C@H]3C=CC(=O)O[C@H]3[C@@H]1C(=O)N[C@H]2C(=O)O | inactive | –
2 | O=C(O)C[C@@]12O[C@H]3C=CCN[C@H]3[C@@H]1C(=O)N[C@H]2C(=O)O | – | Activity [2]: Active; Activity [3]: Active
3 | C=C[C@@H]1O[C@@]2(CC(=O)O)[C@H](C(=O)O)NC(=O)[C@H]2[C@@H]1O | inactive | –
4 | O=C(O)C[C@@]12O[C@H]3CC(=O)O[C@H]3[C@@H]1C(=O)N[C@H]2C(=O)O | inactive | –
5 | O=C(O)C[C@@]12O[C@H]3C=CCO[C@H]3[C@@H]1C(=O)N[C@H]2C(=O)O | – | Activity [4]: Active
